{"source": "paper PMC10602061", "about": "(Research Square, 2023)", "key": {"4T1 cells [1]": {"system": "4T1 cells", "experiment": "xCELLigence real-time cell viability assay (RTCA)", "format": "cell-based, murine", "details": "serum free media, representative of N = 3", "protocol": "3,000 cells were seeded in the wells of an xCELLigence RTCA E-plate 16 (Agilent, Santa Clara, CA). After the cells adhered to the plate, the media was replaced with serum free media, and the cells were treated with CKS1 at the indicated concentrations. The viability of the cells was monitored using the xCELLigence RTCA analyzer (Agilent)."}, "[2]": {"system": "NIH/3T3 normal fibroblasts", "experiment": "LDH release (CyQUANT LDH cytotoxicity assay)", "format": "cell-based, murine", "details": "NIH/3T3 fibroblasts, indicated concentration of CKS1, 6 hours; N = 3", "description": "(§5) 1.0 × 10^4 cells were seeded in a 96-well plate and incubated overnight. The cells were washed once, and the medium was replaced with serum free media. Cells were treated with CKS1 for the indicated time and concentration. CyQUANT LDH cytotoxicity assay (Thermo Fisher Scientific) was used following the manufacturer’s instructions to measure the release of LDH. LDH release was normalized to the amount of LDH released from cells treated with lysis buffer."}, "[3]": {"system": "human umbilical vein endothelial cells (HUVECs)", "experiment": "LDH release (CyQUANT LDH cytotoxicity assay)", "format": "cell-based", "details": "indicated concentration of CKS1, 6 hours, N = 3", "description": "as §5"}, "4T1 cells [4]": {"system": "4T1 cells", "experiment": "Transmission electron microscopy of cell morphology", "format": "cell-based, murine", "details": "100 μM CKS1, 30 minutes", "protocol": "Samples were fixed in 2.5% glutaraldehyde, 3 mM MgCl2 in 0.1 M sodium cacodylate buffer, pH 7.2 overnight at 4°C. After buffer rinse, samples were postfixed in 2% osmium tetroxide in 0.1 M sodium cacodylate for at least one hour (no more than two) on ice in the dark. After osmium, samples were rinsed in 0.1 M Maleate buffer (pH 6.2), followed by uranyl acetate in 0.1 M Maleate (0.22 μm filtered, 1 h, dark), dehydrated in a graded series of ethanol and embedded in Epon (PolySci) resin. Samples were polymerized at 60°C overnight. Thin sections, 60 to 90 nm, were cut with a diamond knife on a Leica UCT ultramicrotome and picked up with 2×1 mm Formvar copper slot grids. Grids were stained with 2% uranyl acetate (aq.) followed by lead citrate and observed with a Hitachi 7600 TEM at 80 kV. Images were captured with an AMT CCD XR80 (8-megapixel camera - side mount AMT XR80 – high-resolution highspeed camera)."}, "4T1 cells [5]": {"system": "4T1 cells", "experiment": "Fluorescence live cell imaging, calcein-AM stained cytosol", "format": "cell-based, murine", "details": "100 μM CKS1, live cell imaging", "protocol": "(§1) Fluorescence labeling of cells was performed by seeding 5.0 × 10^4 4T1 cells in a 35mm dish on a collagen-coated No. 1.5 coverslip with a 14 mm glass diameter (MatTek, Ashland, MA). After overnight incubation, the cells were washed once with serum free media and replaced with fresh serum free media. For cell membrane labeling, NR12S (R&D Systems, Minneapolis, MN, #7509) was added at a final concentration of 0.3 μM and incubated for 30 minutes. For cell cytosol labeling, Calcein-AM (Thermo Fisher Scientific, C1430) was added at a final concentration of 5 μg/mL and incubated for 10 minutes. For mitochondrial membrane labeling, JC-1 (Thermo Fisher Scientific, T3168) was added at a final concentration of 10 μg/mL and incubated for 10 minutes. For nuclear staining, Hoechst 33342 (Cell Signaling Technology, #4082) was added at a final concentration of 5 μg/mL and incubated for 10 minutes.\n(§2) Cells were imaged on either a Zeiss LSM 700 or a 3i spinning disk confocal microscope. Samples were imaged with optimized microscope settings. Z-stack, time-lapse, or multi-channel acquisition settings were adjusted based on the experimental requirements. Images were then acquired with the appropriate excitation and emission wavelengths for each fluorophore.\n(§3) Image analysis was performed using Fiji software. For each image/video, the brightness and the contrast were adjusted. […]"}, "4T1 cells [6]": {"system": "4T1 cells", "experiment": "JC-1 mitochondrial membrane potential imaging", "format": "cell-based, murine", "details": "100 μM CKS1, live cell imaging, 25 cells, representative of N = 3", "protocol": "as §1, §2, §3"}, "caspase-3 in 4T1 cells": {"system": "caspase-3 in 4T1 cells", "experiment": "Caspase-3 activity assay in cell lysate", "format": "cell-based, murine", "details": "100 μM CKS1, indicated time, fluorescence divided by protein concentration, N = 3", "protocol": "1.0 × 10^4 4T1 cells were seeded in 96-well plates and incubated overnight. After CKS1 treatment, the cells were lysed using lysis buffer (Cell Signaling Technology, #7018). The activity of caspase-3 in the cell lysate was quantified using the caspase-3 activity assay kit (Cell Signaling Technology, #5723) following the manufacturer’s instructions. Briefly, the cell lysate was incubated with a substrate of caspase-3 which was designed to emit fluorescence when cleaved. After incubation, the fluorescence was measured using a plate reader. The protein concentration of the cell lysate was quantified using the DC protein assay kit (Bio-Rad, Hercules, CA). The caspase-3 activity was divided by the protein concentration to obtain the caspase-3 activity per μg/mL protein in the cell lysate."}, "glioma": {"system": "glioma", "details": "glioma model; cited from earlier work", "excerpt": "(§4) Chemokinostatin-1 (CKS1) is a 24-mer peptide originally discovered as an anti-angiogenic peptide. Karagiannis and Popel developed a computational method to identify anti-angiogenic sequences contained in the human proteome and discovered common sequences conserved within protein domains contained in angiogenesis-related proteins. CKS1 is derived from a sequence shared in the CXC chemokine family."}, "[7]": {"system": "triple-negative breast cancer (TNBC)", "details": "triple-negative breast cancer (TNBC) model; cited from earlier work", "excerpt": "as §4"}}, "note": "Ends that are not written are not given here.", "data": [{"substance": "NGRKACLNPASPIVKKIIEKMLNS-NH2 [CKS1, Chemokinostatin-1]", "values": [{"measurement": "Time after treatment at which cell death (reduction in cell index) was observed", "setting": "4T1 cells [1]; 4T1 cells, 3,000 cells per well", "value": "≤ 1", "unit": "h"}, {"measurement": "Dose dependence of cell death (reduction in cell index)", "setting": "4T1 cells [1]; 4T1 cells", "value": "dose-dependent"}, {"measurement": "Cell death (release of LDH) in non-cancerous cells", "setting": "[2]", "value": "did not induce cell death"}, {"measurement": "Cell death (release of LDH) in non-cancerous cells", "setting": "[3]", "value": "did not induce cell death"}, {"measurement": "Cell membrane integrity by electron microscopy", "setting": "4T1 cells [4]", "value": "ruptured"}, {"measurement": "Nuclear membrane integrity by electron microscopy", "setting": "4T1 cells [4]", "value": "not ruptured"}, {"measurement": "Events after treatment in calcein-AM stained cells", "setting": "4T1 cells [5]", "value": "influx of the surrounding media into the cells"}, {"measurement": "Mitochondrial membrane potential (JC-1 green/red fluorescence)", "setting": "4T1 cells [6]", "value": "rapidly diminishes the mitochondrial membrane potential"}, {"measurement": "Activity of caspase-3", "setting": "caspase-3 in 4T1 cells", "value": "increased"}, {"measurement": "Suppression of tumor growth", "setting": "glioma", "value": "efficacy in suppressing tumor growth was demonstrated"}, {"measurement": "Suppression of tumor growth", "setting": "[7]", "value": "efficacy in suppressing tumor growth was demonstrated"}]}]}
